According to patent publication US20130338178A1, “SIRTUIN MODULATORS AS INHIBITORS OF CYTOMEGALOVIRUS” (THE TRUSTEES OF PRINCETON UNIVERSITY, priority 2011, published 2013):
Like-named read-outs stand apart in the source and are kept apart here.

Tests used:
[1] = tested on: Influenza A (WSN/33/A, PR8); format: cell-based, influenza A virus
[2] = tested on: HCMV pUL99; assay: Late viral pUL99 expression and cytopathic effect in HCMV infected MRC5 cells; format: cell-based, human cytomegalovirus
[3] = mice; cited from earlier work
[4] = biological target: Hst2 (Saccharomyces cerevisiae, UniProt P53686); conditions: cited from earlier work
Sequence of Hst2 (P53686 whole entry): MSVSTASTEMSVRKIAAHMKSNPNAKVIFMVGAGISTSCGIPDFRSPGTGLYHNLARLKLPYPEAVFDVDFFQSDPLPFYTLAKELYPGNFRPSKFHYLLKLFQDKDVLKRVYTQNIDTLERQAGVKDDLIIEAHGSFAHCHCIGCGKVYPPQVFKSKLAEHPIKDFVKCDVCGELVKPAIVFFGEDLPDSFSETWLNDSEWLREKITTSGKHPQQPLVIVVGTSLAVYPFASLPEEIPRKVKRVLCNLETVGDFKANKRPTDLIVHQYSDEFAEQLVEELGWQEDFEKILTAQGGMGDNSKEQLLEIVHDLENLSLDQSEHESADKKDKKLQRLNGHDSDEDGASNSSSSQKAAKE

[5] = tested on: Burkitt lymphoma xenografts; conditions: mouse, in vivo; cited from earlier work
[6] = tested on: HCMV; assay: Yield of infectious HCMV from drug-treated infected MRC5 fibroblasts; format: cell-based, human cytomegalovirus; conditions: for reduction of the yield of infectious HCMV by a factor of: MRC5, 10% fetal calf serum, added 4 hours after infection
[7] = biological target: T1, SIRT3 (Homo sapiens, UniProt Q9NTG7); conditions: cited from earlier work
T1 sequence (Q9NTG7 1-399): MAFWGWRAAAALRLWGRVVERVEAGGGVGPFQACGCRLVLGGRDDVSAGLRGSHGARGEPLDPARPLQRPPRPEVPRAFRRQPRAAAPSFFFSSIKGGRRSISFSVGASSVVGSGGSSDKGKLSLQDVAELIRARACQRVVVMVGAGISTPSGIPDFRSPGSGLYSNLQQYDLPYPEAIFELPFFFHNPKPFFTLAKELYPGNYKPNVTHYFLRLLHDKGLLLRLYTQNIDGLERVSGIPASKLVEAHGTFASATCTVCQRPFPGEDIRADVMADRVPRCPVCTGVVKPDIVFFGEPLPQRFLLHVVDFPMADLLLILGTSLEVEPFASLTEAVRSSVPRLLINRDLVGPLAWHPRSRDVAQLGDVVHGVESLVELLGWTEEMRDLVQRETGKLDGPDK

[8] = biological target: T2, SIRT1 (Homo sapiens, UniProt Q96EB6); conditions: cited from earlier work
T2 sequence (Q96EB6 1-747): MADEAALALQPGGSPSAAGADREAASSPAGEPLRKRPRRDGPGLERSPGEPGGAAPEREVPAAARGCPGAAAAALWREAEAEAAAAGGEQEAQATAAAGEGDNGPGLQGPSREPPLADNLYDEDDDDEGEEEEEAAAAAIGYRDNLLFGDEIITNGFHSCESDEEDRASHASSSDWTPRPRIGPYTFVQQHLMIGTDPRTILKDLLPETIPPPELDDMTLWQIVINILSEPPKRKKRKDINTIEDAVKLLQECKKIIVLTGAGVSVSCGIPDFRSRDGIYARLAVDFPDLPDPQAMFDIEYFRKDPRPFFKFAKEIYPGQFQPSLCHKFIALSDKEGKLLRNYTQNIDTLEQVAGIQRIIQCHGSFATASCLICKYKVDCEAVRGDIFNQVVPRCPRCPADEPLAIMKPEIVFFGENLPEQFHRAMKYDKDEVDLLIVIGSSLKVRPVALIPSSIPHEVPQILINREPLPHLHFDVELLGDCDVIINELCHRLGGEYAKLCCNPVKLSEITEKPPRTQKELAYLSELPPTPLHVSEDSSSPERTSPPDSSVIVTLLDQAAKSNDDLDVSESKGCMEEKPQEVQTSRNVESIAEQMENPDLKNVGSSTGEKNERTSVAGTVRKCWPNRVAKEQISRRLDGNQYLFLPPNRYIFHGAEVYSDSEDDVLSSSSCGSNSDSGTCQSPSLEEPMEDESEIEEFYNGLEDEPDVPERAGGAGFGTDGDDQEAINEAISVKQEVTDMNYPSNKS

[9] = biological target: T3, SIRT2 (Homo sapiens, UniProt Q8IXJ6); conditions: cited from earlier work
T3 sequence (Q8IXJ6 1-389): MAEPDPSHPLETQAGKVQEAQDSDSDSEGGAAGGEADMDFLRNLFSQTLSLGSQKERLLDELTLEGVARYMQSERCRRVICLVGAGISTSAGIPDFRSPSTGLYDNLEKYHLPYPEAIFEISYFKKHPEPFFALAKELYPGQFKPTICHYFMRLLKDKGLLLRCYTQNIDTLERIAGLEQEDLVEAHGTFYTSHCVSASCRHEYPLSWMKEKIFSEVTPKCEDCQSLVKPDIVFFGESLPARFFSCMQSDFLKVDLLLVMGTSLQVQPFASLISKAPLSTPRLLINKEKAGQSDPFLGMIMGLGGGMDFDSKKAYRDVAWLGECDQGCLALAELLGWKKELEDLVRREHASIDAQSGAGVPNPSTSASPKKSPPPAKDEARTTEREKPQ

[10] = biological target: T2, SIRT1; conditions: cited from earlier work; remark: listed apart in the source
[11] = biological target: T3, SIRT2; conditions: 100 μM; cited from earlier work
[12] = tested on: tumor necrosis factor alpha (TNFα) release; conditions: cited from earlier work

Molecule: Cambinol
- inhibition of influenza A in combination with oseltamivir [1]: cooperated with oseltamivir
- production of infectious Influenza A progeny [1]: inhibited
- pUL99 accumulation ([2]; 50 μM, data not shown): substantial block
- tolerability [3]: well-tolerated
- IC50 [4]: > 1000 µM
- Burkitt lymphoma xenografts [5]: inhibits
- virus yield ([6]; 50 μM, 96 h after infection, limit of detection): < 10^2 IU/ml

Molecule: CC(=O)Nc1ccc(NC(=S)NC(=O)c2ccc(C(C)(C)C)cc2)cc1 [Tenovin 1]
- IC50 [7]: 67 µM
- IC50 [8]: 21 µM
- IC50 [9]: 10 µM

Molecule: Oc1ccc(C=Cc2cc(O)cc(O)c2)cc1 [Resveratrol]
- increase of SIRT1 activity ([10]; 46 μM): 1.5 fold
- increase of SIRT1 activity ([10]; 100 μM): 13 fold
- EC1.5: The concentration to activate 1.5-fold [10]: 46 µM
- cytopathic effect of HCMV ([2]; HCMV infected MRC5 cells, added 4 hours after infection, data not shown): inhibited
- expression of late viral pUL99 ([2]; dose dependent, data not shown): substantially reduced
- activation of SIRT2 [11]: does not activate
- reduction of the yield of infectious HCMV by a factor of ([6]; 50 μM): > 18 fold
- reduction of the yield of infectious HCMV by a factor of ([6]; 100 μM): > 100 fold

Molecule: Nc1c(S(=O)(=O)c2ccccc2)c2nc3ccccc3nc2n1-c1ccc(F)cc1 [CAY10602]
- pUL99 expression ([2]; 25 μM): almost completely inhibited
- suppression of TNFα release, extent relative to resveratrol [12]: 10 fold
